# Results: the supplement of paper PMC4862054
# Columns and labels:
# Settings in all cases: incubation time: 72 h
# BT-474 [1] = experiment: normalised viability (% of control), CellTiter-Blue; higher = more viable cells (100 = DMSO, 0 = benzethonium chloride kill control)
# Procedure: (§1)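 DSRT, CellTiter-Blue viability, 72 h incubation. Signal is normalised to DMSO and benzethonium chloride controls. Value is the normalised response at dose 1.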
# BT-549 [2] = experiment: as above
# Procedure: as §1
# CAL-120 = experiment: as above
# Procedure: as §1
# CAL-148 = experiment: as above
# Procedure: as §1
# CAL-51 = experiment: as above
# Procedure: as §1
# CAL-85-1 = experiment: as above
# Procedure: as §1
# HCC1143 [3] = experiment: as above
# Procedure: as §1
# HCC1599 = experiment: as above
# Procedure: as §1
# HCC1937 [4] = experiment: as above
# Procedure: as §1
# HDQ-P1 [5] = experiment: as above
# Procedure: as §1
# Hs578T [6] = experiment: as above
# Procedure: as §1
# MDA-MB-231 = experiment: as above
# Procedure: as §1
# MDA-MB-436 [7] = experiment: as above
# Procedure: as §1
# MDA-MB-453 = experiment: as above
# Procedure: as §1
# MFM-223 [8] = experiment: as above
# Procedure: as §1
# SK-BR-3 [9] = experiment: as above
# Procedure: as §1
# BT-474 [10] = experiment: drug sensitivity score (DSS), CellTiter-Glo (DSS (AUC-based score)); higher = stronger drug effect (viability inhibition or cytotoxicity); extreme values may be limits of the assay
# Summary of the method: (§2)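 Breast cancer cell lines, seeded as 20 µl suspension, were incubated 72 h with compound in 384-well plates at 5 concentrations in 10-fold steps over a 10,000-fold range set for each compound. Fluorescence from CellTox Green was read at 485/520 nm before CellTiter-Glo luminescence, which was read after 10 min at room temperature. Every plate was normalised to 0.1 % DMSO and a positive kill control, and the drug sensitivity score was taken from the area under the fitted dose-response curve.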
# BT-549 [11] = experiment: as above
# Summary of the method: as §2
# HCC1143 [12] = experiment: as above
# Summary of the method: as §2
# HCC1937 [13] = experiment: as above
# Summary of the method: as §2
# HDQ-P1 [14] = experiment: as above
# Summary of the method: as §2
# Hs578T [15] = experiment: as above
# Summary of the method: as §2
# MCF-10A = experiment: as above
# Summary of the method: as §2
# MDA-MB-436 [16] = experiment: as above
# Summary of the method: as §2
# MDA-MB-468 = experiment: as above
# Summary of the method: as §2
# MFM-223 [17] = experiment: as above
# Summary of the method: as §2
# SK-BR-3 [18] = experiment: as above
# Summary of the method: as §2
structure (smiles),measurement,setting,value
C=CC(=O)N1CCC[C@@H](n2nc(-c3ccc(Oc4ccccc4)cc3)c3c(N)ncnc32)C1,normalised viability,BT-474 [1]; 0.1 nM,107%
same,normalised viability,BT-549 [2]; 0.1 nM,118%
same,normalised viability,CAL-120; 0.1 nM,81.3%
same,normalised viability,CAL-148; 0.1 nM,102%
same,normalised viability,CAL-51; 0.1 nM,93.1%
same,normalised viability,CAL-85-1; 0.1 nM,86.1%
same,normalised viability,HCC1143 [3]; 0.1 nM,88.1%
same,normalised viability,HCC1599; 0.1 nM,105%
same,normalised viability,HCC1937 [4]; 0.1 nM,93.3%
same,normalised viability,HDQ-P1 [5]; 0.1 nM,105%
same,normalised viability,Hs578T [6]; 0.1 nM,119%
same,normalised viability,MDA-MB-231; 0.1 nM,101%
same,normalised viability,MDA-MB-436 [7]; 0.1 nM,91%
same,normalised viability,MDA-MB-453; 0.1 nM,103%
same,normalised viability,MFM-223 [8]; 0.1 nM,99.8%
same,normalised viability,SK-BR-3 [9]; 0.1 nM,90.7%
CC(=O)Nc1cccc(-n2c(=O)n(C3CC3)c(=O)c3c(Nc4ccc(I)cc4F)n(C)c(=O)c(C)c32)c1,normalised viability,BT-474 [1]; 0.025 nM,100%
same,normalised viability,BT-549 [2]; 0.025 nM,104%
same,normalised viability,CAL-120; 0.025 nM,104%
same,normalised viability,CAL-148; 0.025 nM,107%
same,normalised viability,CAL-51; 0.025 nM,98.7%
same,normalised viability,CAL-85-1; 0.025 nM,107%
same,normalised viability,HCC1143 [3]; 0.025 nM,102%
same,normalised viability,HCC1599; 0.025 nM,104%
same,normalised viability,HCC1937 [4]; 0.025 nM,93.7%
same,normalised viability,HDQ-P1 [5]; 0.025 nM,105%
same,normalised viability,Hs578T [6]; 0.025 nM,113%
same,normalised viability,MDA-MB-231; 0.025 nM,105%
same,normalised viability,MDA-MB-436 [7]; 0.025 nM,101%
same,normalised viability,MDA-MB-453; 0.025 nM,107%
same,normalised viability,MFM-223 [8]; 0.025 nM,105%
same,normalised viability,SK-BR-3 [9]; 0.025 nM,135%
CCc1cncnc1N1CCN(Cc2nc3ccc(C(F)(F)F)cc3[nH]2)CC1,normalised viability,BT-474 [1]; 1 nM,102%
same,normalised viability,BT-549 [2]; 1 nM,98.2%
same,normalised viability,CAL-120; 1 nM,111%
same,normalised viability,CAL-148; 1 nM,114%
same,normalised viability,CAL-51; 1 nM,90.8%
same,normalised viability,CAL-85-1; 1 nM,99%
same,normalised viability,HCC1143 [3]; 1 nM,103%
same,normalised viability,HCC1599; 1 nM,82.6%
same,normalised viability,HCC1937 [4]; 1 nM,86.6%
same,normalised viability,HDQ-P1 [5]; 1 nM,106%
same,normalised viability,Hs578T [6]; 1 nM,106%
same,normalised viability,MDA-MB-231; 1 nM,96.8%
same,normalised viability,MDA-MB-436 [7]; 1 nM,106%
same,normalised viability,MDA-MB-453; 1 nM,101%
same,normalised viability,MFM-223 [8]; 1 nM,103%
same,normalised viability,SK-BR-3 [9]; 1 nM,88.8%
same,drug sensitivity score,BT-474 [10],0.467
same,drug sensitivity score,BT-549 [11],1.94
same,drug sensitivity score,HCC1143 [12],0
same,drug sensitivity score,HCC1937 [13],0
same,drug sensitivity score,HDQ-P1 [14],0
same,drug sensitivity score,Hs578T [15],0
same,drug sensitivity score,MCF-10A,0
same,drug sensitivity score,MDA-MB-436 [16],0
same,drug sensitivity score,MDA-MB-468,2.68
same,drug sensitivity score,MFM-223 [17],0
same,drug sensitivity score,SK-BR-3 [18],0
Cc1cnc(NC(=O)Nc2cc(Br)c(C)cc2OC[C@@H]2CNCCO2)cn1,normalised viability,BT-474 [1]; 0.1 nM,107%
same,normalised viability,BT-549 [2]; 0.1 nM,87.9%
same,normalised viability,CAL-120; 0.1 nM,98.6%
same,normalised viability,CAL-148; 0.1 nM,99.8%
same,normalised viability,CAL-51; 0.1 nM,86.8%
same,normalised viability,CAL-85-1; 0.1 nM,96.7%
same,normalised viability,HCC1143 [3]; 0.1 nM,115%
same,normalised viability,HCC1599; 0.1 nM,114%
same,normalised viability,HCC1937 [4]; 0.1 nM,93.6%
same,normalised viability,HDQ-P1 [5]; 0.1 nM,84.2%
same,normalised viability,Hs578T [6]; 0.1 nM,106%
same,normalised viability,MDA-MB-231; 0.1 nM,93.3%
same,normalised viability,MDA-MB-436 [7]; 0.1 nM,119%
same,normalised viability,MDA-MB-453; 0.1 nM,99.5%
same,normalised viability,MFM-223 [8]; 0.1 nM,102%
same,normalised viability,SK-BR-3 [9]; 0.1 nM,91.2%
NCCCNCCSP(=O)(O)O [Amifostine],normalised viability,BT-474 [1]; 1 nM,85.7%
same,normalised viability,BT-549 [2]; 1 nM,98%
same,normalised viability,CAL-120; 1 nM,73.3%
same,normalised viability,CAL-148; 1 nM,103%
same,normalised viability,CAL-51; 1 nM,106%
same,normalised viability,CAL-85-1; 1 nM,85.2%
same,normalised viability,HCC1143 [3]; 1 nM,81.4%
same,normalised viability,HCC1599; 1 nM,110%
same,normalised viability,HCC1937 [4]; 1 nM,91.8%
same,normalised viability,HDQ-P1 [5]; 1 nM,98.3%
same,normalised viability,Hs578T [6]; 1 nM,107%
same,normalised viability,MDA-MB-231; 1 nM,80%
same,normalised viability,MDA-MB-436 [7]; 1 nM,102%
same,normalised viability,MDA-MB-453; 1 nM,97.4%
same,normalised viability,MFM-223 [8]; 1 nM,76.4%
same,normalised viability,SK-BR-3 [9]; 1 nM,91.7%
CC[C@@H]1C(=O)N(C)c2cnc(Nc3ccc(C(=O)NC4CCN(C)CC4)cc3OC)nc2N1C1CCCC1 [BI 2536],normalised viability,BT-474 [1]; 0.1 nM,101%
same,normalised viability,BT-549 [2]; 0.1 nM,115%
same,normalised viability,CAL-120; 0.1 nM,91.8%
same,normalised viability,CAL-148; 0.1 nM,98%
same,normalised viability,CAL-51; 0.1 nM,89.5%
same,normalised viability,CAL-85-1; 0.1 nM,96.3%
same,normalised viability,HCC1143 [3]; 0.1 nM,109%
same,normalised viability,HCC1599; 0.1 nM,83.2%
same,normalised viability,HCC1937 [4]; 0.1 nM,86.5%
same,normalised viability,HDQ-P1 [5]; 0.1 nM,94%
same,normalised viability,Hs578T [6]; 0.1 nM,122%
same,normalised viability,MDA-MB-231; 0.1 nM,105%
same,normalised viability,MDA-MB-436 [7]; 0.1 nM,112%
same,normalised viability,MDA-MB-453; 0.1 nM,94.7%
same,normalised viability,MFM-223 [8]; 0.1 nM,99%
same,normalised viability,SK-BR-3 [9]; 0.1 nM,98.5%
same,drug sensitivity score,BT-474 [10],8.94
same,drug sensitivity score,BT-549 [11],21.3
same,drug sensitivity score,HCC1143 [12],15.7
same,drug sensitivity score,HCC1937 [13],0
same,drug sensitivity score,HDQ-P1 [14],4.76
same,drug sensitivity score,Hs578T [15],13.3
same,drug sensitivity score,MCF-10A,9.18
same,drug sensitivity score,MDA-MB-436 [16],14
same,drug sensitivity score,MDA-MB-468,19.5
same,drug sensitivity score,MFM-223 [17],16.7
same,drug sensitivity score,SK-BR-3 [18],25.7
CC[C@H](Nc1ncnc2[nH]cnc12)c1nc2cccc(F)c2c(=O)n1-c1ccccc1 [CAL-101],normalised viability,BT-474 [1]; 1 nM,100%
same,normalised viability,BT-549 [2]; 1 nM,97.9%
same,normalised viability,CAL-120; 1 nM,104%
same,normalised viability,CAL-148; 1 nM,91.3%
same,normalised viability,CAL-51; 1 nM,88.6%
same,normalised viability,CAL-85-1; 1 nM,90%
same,normalised viability,HCC1143 [3]; 1 nM,94%
same,normalised viability,HCC1599; 1 nM,82.4%
same,normalised viability,HCC1937 [4]; 1 nM,121%
same,normalised viability,HDQ-P1 [5]; 1 nM,89.5%
same,normalised viability,Hs578T [6]; 1 nM,118%
same,normalised viability,MDA-MB-231; 1 nM,82.3%
same,normalised viability,MDA-MB-436 [7]; 1 nM,116%
same,normalised viability,MDA-MB-453; 1 nM,89.8%
same,normalised viability,MFM-223 [8]; 1 nM,91.1%
same,normalised viability,SK-BR-3 [9]; 1 nM,97.4%
O=C(O)CCCCC(CCSCc1ccccc1)SCc1ccccc1 (stereo unspecified) [CPI-613],drug sensitivity score,BT-474 [10],0
same,drug sensitivity score,BT-549 [11],0
same,drug sensitivity score,HCC1143 [12],0
same,drug sensitivity score,HCC1937 [13],0
same,drug sensitivity score,HDQ-P1 [14],0
same,drug sensitivity score,Hs578T [15],0
same,drug sensitivity score,MCF-10A,0
same,drug sensitivity score,MDA-MB-436 [16],0
same,drug sensitivity score,MDA-MB-468,0
same,drug sensitivity score,MFM-223 [17],0
same,drug sensitivity score,SK-BR-3 [18],0
O=C(/C=C/c1cccnc1)NCCCCC1CCN(C(=O)c2ccccc2)CC1 [Daporinad],drug sensitivity score,BT-474 [10],13.4
same,drug sensitivity score,BT-549 [11],0
same,drug sensitivity score,HCC1143 [12],22.2
same,drug sensitivity score,HCC1937 [13],21.4
same,drug sensitivity score,HDQ-P1 [14],18
same,drug sensitivity score,Hs578T [15],26.8
same,drug sensitivity score,MCF-10A,23.2
same,drug sensitivity score,MDA-MB-436 [16],8.81
same,drug sensitivity score,MDA-MB-468,30
same,drug sensitivity score,MFM-223 [17],31.4
same,drug sensitivity score,SK-BR-3 [18],0
